Experimental data: patent US5192799A, “Coumaran group containing amine compounds and their acid addition salts and quaternary ammonium salts and the use thereof as anti arrhythmic agents and as psychotropic agents” (Mitsui Petrochemical Industries, Ltd., priority 1987, dated 1993)
Where two headings read alike, the source gives them in different places.

How the values were obtained:
[1] = tested on: right ventricle (effective refractory period); experiment: Activity on ERP of the right ventricle; format: in vivo, adult mongrel dog; settings: Canis lupus familiaris, read-out: ERP % (ERP prolonging activity)
Protocol: The pharmacological effects of the compounds of this invention represented by general formula (1) were studied. By using the heart of an adult mongrel dog, the activity of the compounds of general formula (1) were tested in vitro and in vivo. The heart of an anaethetized dog was extracted and suspended in a chamber at 37° C. in Tyrode's solution. The drug was added to Tyrode's solution being perfused through the heart specimen, and electrophysiological effects of the drug on cardiac action potential duration (APD) and maximum rate of depolarization were studied. An anaethetized dog was cut open at the chest. […] In an anaethetized and open-chested adult mongrel dug, a silver-silver chloride electrode was sutured to the right ventricle, and ventricular pacing was performed at a stimulation interval of 400 msec for a duration time of 4 msec, twice diastolic threshold. Then, a small amount of alcohol was injected through the sinus artery to extinguish the pacemaker activity, and under ventricular pacing, ERP was measured. Ten stimulations were taken as one train, and the interval between trains when the response to the first stimulation disappeared was defined as ERP. […] ERP before drug administration (intravenously or intraduodenally) was taken as 100%, and ERP prolonging activity of the drugs was expressed by %.

in vivo = settings: mouse, in vivo
Protocol: By using male ddY-strain 5-week old mice (3 to 4 per group), the compounds of general formula (1) were each administered orally or intraperitoneally as a solution in saline or as a suspension in methyl cellulose, and 24 hours after the administration, the toxicity of the compounds was evaluated.

Purkinje fiber = experiment: Effect on APD (APD75, field-stimulated right ventricular free wall); format: cell-based, adult mongrel dog; settings: Canis lupus familiaris, purkinje, 20 min, read-out: APD75 % (percent change in APD75); for activation at 10 µg/mL: dose 10 μg/ml
Protocol: The pharmacological effects of the compounds of this invention represented by general formula (1) were studied. By using the heart of an adult mongrel dog, the activity of the compounds of general formula (1) were tested in vitro and in vivo. The heart of an anaethetized dog was extracted and suspended in a chamber at 37° C. in Tyrode's solution. The drug was added to Tyrode's solution being perfused through the heart specimen, and electrophysiological effects of the drug on cardiac action potential duration (APD) and maximum rate of depolarization were studied. An anaethetized dog was cut open at the chest.
An adult mongrel dog was anaethetized with intravenous administration of pentobarbital, 30 mg/kg. The heart was quickly removed, and the right ventricular free wall was dissected in the Tyrode's solution. The right ventricular free wall was fixed within an incubator at 37° C., and field stimulation at 1 Hz was carried out. Intracellular potentials were measured by piercing glass microelectrodes (10-20 megaohms) into the Purkinje fiber and the wave form of cardiac action potential drawn on an oscilloBraun tube via an amplifier was analyzed by a computer. Value of APD was obtained at 75% of full repolarization (APD75). The drug was added to Tyrode's solution (20 ml) perfused through the specimen. The effect of the drug was expressed by a percent change in APD75 after incubation for 20 minutes with the control value of APD before application of the drug being taken as 100%.

[2] = iv, 0.1 mg/kg i.v., ERP before drug = 100%
[3] = iv, 0.3 mg/kg i.v., ERP before drug = 100%
[4] = iv, 1 mg/kg i.v., ERP before drug = 100%
[5] = iv, 3 mg/kg i.v., ERP before drug = 100%
[6] = dose 3 μg/ml, 20 minutes incubation, 37° C., 1 Hz, control before drug = 100%
[7] = 20 minutes incubation, 37° C., 1 Hz, control before drug = 100%
[8] = po, LD50 p.o., p.o., 24 hours after administration, male ddY mice
[9] = dose 1 μg/ml, 20 minutes incubation, 37° C., 1 Hz, control before drug = 100%

Row | Compound | change in vivo at 0.1 mg/kg [1, 2] | change in vivo at 0.3 mg/kg [1, 3] | change in vivo at 1 mg/kg [1, 4] | change in vivo at 3 mg/kg [1, 5] | activation at 3 µg/mL (Purkinje fiber; [6]) | activation at 10 µg/mL (Purkinje fiber; [7]) | LD50 at 24 h (in vivo; [8]) | activation at 1 µg/mL (Purkinje fiber; [9]) | further results
1 | O=C1COc2cc(OCCCN3CCC(CO)CC3)ccc21 [Compound 1290] | 0% | 5.9% | 11.8% | 17.7% | 11% | 28% |  |  | LD50 at 24 h (in vivo; po): < 300 mg/kg
2 | CCCCCCCN(CC)CCCOc1ccc2c(c1OC)OCC2=O [Compound 244] | 0% | 9% | 9% | 17% | 9% | 11% | ~300 mg/kg | 6% | 
3 | CCCCCCCN(CC)CC(O)COc1ccc2c(c1)OCC2=O.Cc1ccc(S(=O)(=O)O)cc1 (stereo not shown) [Compound 216, 6-[3-(N-ethyl-N-heptylamino)-2-hydroxypropyloxy]coumaran-3-one p-toluenesu lfonate] |  |  |  |  |  |  | 300 to 600 mg/kg |  | change in vivo at 0.1 mg/kg ([1]; iv): 8%; change in vivo at 0.3 mg/kg ([1]; iv): 8%; change in vivo at 1 mg/kg ([1]; iv): 8%; change in vivo at 3 mg/kg ([1]; iv): 8%; activation at 1 µg/mL (Purkinje fiber): 13%; activation at 3 µg/mL (Purkinje fiber): 17%
4 | CCCCCCCN(CC)CCOc1ccc2c(c1)OCC2=O [Compound 196] | 5% | 5% | 18% |  | 10% | 11% | ~300 mg/kg | 7% | 
5 | CCC1CCN(CCCOc2ccc3c(c2)OCC3=O)CC1 [Compound 1274] | 0% | 6.7% | 13.3% | 13.3% | 19% |  |  | 6% | LD50 at 24 h (in vivo; po): < 300 mg/kg
6 | O=C1COc2cc(OCCCN3CCCC4CCCCC43)ccc21 (stereo not shown) [Compound 1158] |  |  |  |  | 10% | 13% | > 300 mg/kg |  | 
7 | CCCCCCCN(CC)CCCCOc1ccc2c(c1)OCC2=O [Compound 212] | 7.1 ± 3.4% | 7.1 ± 3.4% | 13.8 ± 3.6% | 13.8 ± 3.6% | 8% |  | 300 to 600 mg/kg | 4% | 
8 | CCCCCCC[N+](CC)(CC)CCCOc1ccc2oc(=O)cc(C)c2c1 [Compound 630] | 3% | 5% | 8% |  | 25% | 48% | > 300 mg/kg |  | 
9 | CC(C)N(CCCOc1ccc2c(c1)OCC2=O)C(C)C [Compound 116] | 3% | 7% | 9% | 9% | 38% | 44% | > 300 mg/kg | 14% | 
10 | CCN(CCCOc1ccc2c(c1)OCC2=O)CC1CCCO1 (stereo not shown) [Compound 184] | 4.3 ± 2.2% | 6.3 ± 3.4% | 6.3 ± 3.4% |  | 16% | 31% | ~300 mg/kg |  | 
11 | CCCCCCC[N+](CC)(CC)CCCOc1ccc2c(c1)OCC2=O.[Br-] [Compound 286, (3-oxo-6-coumaranoxypropyl)diethylheptyl ammonium bromide] | 5.7 ± 0.3% | 15.7 ± 5.5% | 15.7 ± 5.5% | 17.7 ± 7.3% | 29% |  | 300 to 1000 mg/kg | 17% | change in vivo at 0.1 mg/kg ([1]; 0.1 mg/kg i.d., ERP before drug = 100%): 0%; change in vivo at 0.3 mg/kg ([1]; 0.3 mg/kg i.d., ERP before drug = 100%): 0%; change in vivo at 1 mg/kg ([1]; 1 mg/kg i.d., ERP before drug = 100%): 10%; change in vivo at 3 mg/kg ([1]; 3 mg/kg i.d., ERP before drug = 100%): 19%; LD50 at 24 h (in vivo; ip, LD50 i.p., i.p., 24 hours after administration, male ddY mice): 100 to 500 mg/kg
12 | CCCCCCC[N+](CC)(CC)CCCOc1ccc2c(c1)OCC2O (stereo not shown) [Compound 470] | 0% | 0% | 2% | 8% | 16% | 20% | > 300 mg/kg | 13% | 
13 | CC1CCN(CCCOc2ccc3c(c2)OCC3=O)CC(C)C1 (stereo not shown) [Compound 1194] |  |  |  |  | 19% |  | > 300 mg/kg | 16% | 
14 | CC1CCCCN1CCCOc1ccc2c(c1)OCC2=O (stereo not shown) [Compound 1114] |  |  | 3% | 8% | 22% | 35% | > 300 mg/kg | 11% | 
15 | CC1CCN(CCCOc2ccc3c(c2)OCC3=O)CC1 [Compound 1122] |  |  | 9% | 15% | 15% | 42% | > 300 mg/kg | 4% | 
16 | CCCCN(CCCOc1ccc2c(c1)OCC2=O)CC(C)C [Compound 128] |  |  |  |  | 18% |  | > 300 mg/kg | 9% | 
17 | CC(C)C1CCN(CCCOc2ccc3c(c2)OCC3=O)CC1 [Compound 1278] | 1.6 ± 1.6% | 4.8 ± 1.6% | 13 ± 2.4% | 19.8 ± 0.6% | 9% | 24% | > 300 mg/kg |  | 
18 | CC[N+]1(CCCOc2ccc3c(c2)OCC3=O)CC(C)OC(C)C1 (stereo not shown) [Compound 1171] |  |  |  |  | 10% |  | > 300 mg/kg | 0% | 
19 | CC(C)CN(CCCOc1ccc2c(c1)OCC2=O)CC(C)C [Compound 132] | 2.4 ± 2.4% | 2.4 ± 2.4% | 4.8 ± 4.8% | 4.8 ± 4.8% | 18% | 21% | > 300 mg/kg | 7% | 
20 | CCCCCN(CC)CCCCOc1ccc2c(c1)OCC2=O [Compound 208] |  |  |  |  | 5% | 9% | ~300 mg/kg | 0% | 
21 | CCOC(=O)C1CCN(CCCOc2ccc3c(c2)OCC3=O)CC1 [Compound 1282] | 0% | 0% | 6% | 6% | 11% | 19% | > 300 mg/kg |  | 
